# In patent US6448260B2, “Endothelin receptor antagonists” (SmithKline Beecham Corporation, priority 1991, dated 2002):
row,melting point,Structure (SMILES)
1,110 to 113 °C,"COc1ccc([C@H]2c3cc(O)ccc3[C@@H](c3ccc4c(c3)OCO4)[C@@H]2C(=O)O)c(OC)c1 (racemic) [Example 76, (1RS, 2SR, 3RS)-3-(2,4-Dimethoxyphenyl)-5-hydroxy-1-(3,4-methylenedioxyphenyl)indane-2-carboxylic acid]"
2,152 to 155 °C,"CCCOc1ccc2c(c1)[C@H](c1ccc(OC)cc1Oc1ncccc1C(=O)O)[C@@H](C(=O)O)[C@@H]2c1ccc2c(c1)OCO2 (racemic) [Example 98, (1RS, 2SR, 3RS)-3-[2-[(3-Carboxypyridin-2-yl)oxy]-4-methoxyphenyl]-1-(3,4-methylenedioxyphenyl)-5-(prop-1-yloxy) indane-2-carboxylic acid]"
3,169 to 170 °C,"CCOc1ccc([C@@H]2c3ccccc3[C@H](c3ccc4c(c3)OCO4)[C@H]2C(=O)O)cc1 (racemic) [Example 73, (1RS, 2SR, 3SR)-1-(4-Ethoxyphenyl)-3-(3,4-methylenedioxyphenyl)indane-2-carboxylic acid]"
4,168 to 170 °C,"C=CCOc1cc(OC)ccc1[C@H]1c2cc(OCCC)ccc2[C@@H](c2ccc3c(c2)OCO3)[C@@H]1C(=O)O (racemic) [Example 100, (1RS, 2SR, 3RS)-1-(3,4-Methylenedioxyphenyl)-3-[4methoxy-2-(2-propen-1-yloxy)phenyl]-5-(prop-1-yloxy)indane-2-carboxylic acid]"
5,149 to 150 °C,"COc1ccc([C@@H]2c3cc(OC)ccc3[C@@H](c3ccc4c(c3)OC(OC)O4)[C@H]2C(=O)O)cc1 (mixture of isomers) [Example 84, (1RS, 2SR, 3RS)-5-Methoxy-3-(4-methoxyphenyl)-1-(2-methoxy4,5-methylenedioxyphenyl)indane-2-carboxylic acid]"
6,225 to 226 °C,"COc1cc(OC)c([C@H]2c3ccc(O)cc3[C@@H](c3ccc4c(c3)OCO4)[C@@H]2C(=O)O)c(OC)c1 (racemic) [Example 78, (1RS, 2SR, 3RS)-5-Hydroxy-3-(3,4-methylenedioxyphenyl)-1-(2,4,6-trimethoxyphenyl)indane-2-carboxylic acid]"
7,176 to 177 °C,"CCCCc1ccc2c(c1)[C@H](c1ccc(OC)cc1OCC(=O)O)[C@@H](C(=O)O)[C@@H]2c1ccc2c(c1)OCO2 (racemic) [Example 89, (1RS, 2SR, 3RS)-5-Butyl-3-(2-carboxymethoxy-4-methoxyphenyl)-1-(3,4-methylenedioxyphenyl) indane-2-carboxylic acid]"
8,191 to 193 °C,"O=C(O)[C@H]1[C@H](c2ccc3c(c2)OCO3)c2ccc(OCc3ccccc3)cc2[C@@H]1c1ccc2c(c1)OCO2 (racemic) [Example 116, (1RS, 2SR, 3SR)-5-Benzyloxy-1,3-bis(3,4-methylenedioxyphenyl)indane-2 carboxylic acid]"
9,148 to 149 °C,"COc1ccc([C@@H]2c3cc(OC)ccc3[C@H](c3ccc4c(c3OC)OCO4)[C@H]2C(=O)O)cc1 (racemic) [Example 93, (1RS, 2SR, 3RS)-5-Methoxy-1-(2-methoxy-3,4-methylenedioxyphenyl)-3-(4-methoxyphenyl)indane-2-carboxylic acid]"

# Continued, molecule first:
row,Structure (SMILES),melting point
1,"O=C(O)[C@H]1[C@H](c2ccc(F)cc2)c2ccccc2[C@@H]1c1ccc2c(c1)OCO2 (racemic) [Example 4, (1RS, 2SR, 3SR)-1-(4-Fluorophenyl)-3-(3,4-methylenedioxyphenyl)indane-2-carboxylic acid]",146 to 149 °C
2,"CCCOc1ccc2c(c1)[C@H](c1ccc(OC)cc1OCOC)[C@@H](C(=O)O)[C@@H]2c1ccc2c(c1)OCO2 (racemic) [Example 31, (1RS, 2SR, 3RS)-3-(4-methoxy-2-methoxymethoxyphenyl)1-(3,4-methylenedioxyphenyl)-5-(prop-1-yloxy)indane-2-carboxylic acid]",161 to 163 °C
3,"CCCOc1ccc2c(c1)[C@H](c1ccc(OC)cc1-c1ccccc1)[C@@H](C(=O)O)[C@@H]2c1ccc2c(c1)OCO2 (racemic) [Example 56, (1RS, 2SR, 3RS)-3-(4-Methoxy-2-phenylphenyl)-1-(3,4-methylenedioxyphenyl)-5-(prop-1-yloxy)indane-2-carboxylic acid]",199 to 200 °C
4,"O=C(O)C1[C@H](c2ccc3c(c2)OCO3)c2ccccc2[C@H]1c1ccc2c(c1)OCO2 (racemic) [Example 6, (1RS, 3RS)-1,3-Di-(3,4-methylenedioxyphenyl)-indane-2-carboxylic acid]",182 to 185 °C
5,"O=C(O)[C@H]1[C@H](c2ccc3c(c2)OCO3)c2ccccc2[C@@H]1c1ccccc1 (racemic) [Example 8, (1RS, 2RS, 3SR)-1-(3,4-Methylenedioxyphenyl)-3-phenylindane-2-carboxylic acid]",186 to 187 °C
6,"CCc1ccc([C@@H]2c3ccccc3[C@H](c3ccccc3)[C@H]2C(=O)O)cc1 (racemic) [Example 20, (1RS, 2RS, 3SR)-1-(4-Ethylphenyl)-3-phenylindane-2-carboxylic acid]",163 to 164 °C
7,"O=C(O)[C@H]1[C@H](c2ccc(O)cc2)c2ccccc2[C@@H]1c1ccc2c(c1)OCO2 (racemic) [Example 25, (1RS, 2SR, 3SR)-1-(4-Hydroxyphenyl)-3-(3,4-methylenedioxyphenyl)indane-2-carboxylic acid]",94 to 96 °C
8,CCCOc1ccc2c(c1)[C@H](c1ccc(OC)cc1OCC(=O)[O-])[C@@H](C(=O)O[C@@H](C)OC(=O)C(C)(C)OC)[C@@H]2c1ccc2c(c1)OCO2.[Na+] (racemic),178 to 181 °C (dec.)
9,"COc1ccc([C@@H]2c3ccccc3[C@H](c3ccc4c(c3)OCO4)[C@H]2c2nnn[nH]2)cc1 (racemic) (hydrate or solvate) [Example 9, (1RS, 2SR, 3SR)-1-(4-Methoxyphenyl)-3-(3,4-methylenedioxyphenyl)-2-(tetrazol-5-yl)indane]",155 to 157 °C
10,"COc1ccc(C2C(C(=O)O)=C(c3ccccc3)c3ccccc32)cc1 (racemic) [Example 15, (1RS)-1-(4-Methoxyphenyl)-3-phenylindene-2-carboxylic acid]",191 to 193 °C
11,"COc1ccc([C@H]2c3cc(OC)ccc3[C@@H](c3ccc4c(c3)OCO4)[C@H]2C(=O)O)cc1 (racemic) [Example 28, (1RS, 2SR, 3SR)-5-Methoxy-3-(4-methoxyphenyl)-1-(3,4-methylenedioxyphenyl)indane-2-carboxylic acid]",129 to 131 °C
12,"CCCOc1ccc2c(c1)[C@H](c1ccc(OC)cc1OCC#N)[C@@H](C(=O)O)[C@@H]2c1ccc2c(c1)OCO2 (racemic) [Example 50, (1RS,2SR,3RS)-3-(2-Cyanomethoxy-4-methoxyphenyl)-1-(3,4-methylenedioxyphenyl)-5-(prop-1-yloxy)indane-2-carboxylic acid]",199 to 201 °C
13,"CCCOc1ccc2c(c1)[C@@H](c1ccc(OC)cc1OCC(=O)O)[C@@H](C(=O)O)[C@H]2c1cc2c(cc1OC)OCO2 (racemic) [Example 30, (1RS, 2SR, 3SR)-3-(2-Carboxymethoxy-4-methoxyphenyl)-1-(2-methoxy-4,5-methylenedioxyphenyl)-5-(prop-1-yloxy)-indane-2-carboxylic acid]",188 to 190 °C
14,"COc1ccc([C@@H]2c3ccccc3[C@H](c3cc(OC)c(OC)c(OC)c3)[C@H]2C(=O)O)cc1 (racemic) [Example 72, (1RS, 2SR, 3S R)-1-(4-Methoxyphenyl)-3-(3,4,5-trimethoxyphenyl)indane-2-carboxylic acid]",197 to 198 °C
15,"CCCOc1ccc2c(c1)[C@H](c1ccc(OC)cc1CCC)[C@@H](C(=O)O)[C@@H]2c1ccc2c(c1)OCO2 (racemic) [Example 61, (1RS, 2SR, 3SR)-3-[4-Methoxy-2-(prop-1-yl)phenyl]-1-(3,4-methylenedioxyphenyl)-5-(prop-1-yloxy)indane-2-carboxylic acid]",155 to 156 °C
